Assay results published in ChEMBL document CHEMBL1143329, “Discovery and SAR of benzyl phenyl ethers as inhibitors of bacterial phenylalanyl-tRNA synthetase” (Bioorg Med Chem Lett, 2009).
≈ marks a conversion by molar mass, not a printed value.

Tests used:
[1] = Inhibition of Haemophilus influenzae phenylalanyl-tRNA synthetase
[2] = Inhibition of Streptococcus pneumoniae phenylalanyl-tRNA synthetase
[3] = test system: Haemophilus influenzae; assay: Antibacterial activity against wild type Haemophilus influenzae; assay type: functional
[4] = test system: Streptococcus pneumoniae; assay: Antibacterial activity against wild type Streptococcus pneumoniae; assay type: functional
[5] = test system: Haemophilus influenzae; assay: Antibacterial activity against AcrA pump deficient Haemophilus influenzae; assay type: functional
[6] = target: Voltage-gated inwardly rectifying potassium channel KCNH2 (Homo sapiens, UniProt Q12809); assay: Displacement of [3H]dofetilide from human ERG channel
[7] = target: Cytochrome P450 2C9 (Homo sapiens, UniProt P11712); assay: Inhibition of human CYP2C9 at 3 uM; assay type: ADME
[8] = Apparent intrinsic clearance in human liver microsomes; assay type: ADME, Microsome
[9] = Membrane permeability by PAMPA; assay type: ADME; settings: for Papp: read-out: Activity
[10] = target: Cytochrome P450 3A4 (Homo sapiens, UniProt P08684); assay: Inhibition of human CYP3A4 at 3 uM; assay type: ADME
[11] = target: T1, Cytochrome P450 1A2 (Homo sapiens, UniProt P05177); assay: (§1) Inhibition of human CYP1A2 at 3 uM; assay type: ADME; settings: 3 µM
T1 sequence (P05177 whole entry): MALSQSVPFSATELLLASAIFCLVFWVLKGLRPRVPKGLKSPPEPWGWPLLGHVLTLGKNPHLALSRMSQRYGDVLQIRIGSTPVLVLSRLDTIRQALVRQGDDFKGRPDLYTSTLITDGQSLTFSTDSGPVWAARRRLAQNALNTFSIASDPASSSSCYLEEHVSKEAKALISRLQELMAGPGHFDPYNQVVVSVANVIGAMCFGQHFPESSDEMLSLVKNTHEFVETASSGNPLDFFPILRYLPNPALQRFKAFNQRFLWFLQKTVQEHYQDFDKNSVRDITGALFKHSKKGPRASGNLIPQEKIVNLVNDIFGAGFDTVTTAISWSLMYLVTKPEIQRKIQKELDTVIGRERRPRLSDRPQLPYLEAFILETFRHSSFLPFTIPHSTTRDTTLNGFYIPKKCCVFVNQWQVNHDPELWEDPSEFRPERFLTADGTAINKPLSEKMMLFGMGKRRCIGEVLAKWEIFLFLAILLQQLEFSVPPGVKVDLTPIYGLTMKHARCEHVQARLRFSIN

[12] = target: Cytochrome P450 2D6 (Homo sapiens, UniProt P10635); assay: Inhibition of human CYP2D6 at 3 uM; assay type: ADME
[13] = target: T2, CYP1A2 (Homo sapiens, UniProt P05177); assay: as §1; assay type: ADME; settings: read-out: Activity
T2 sequence (P05177 whole entry): T1 sequence (P05177 whole entry)

[14] = target: hERG (KCNH2) (Homo sapiens, UniProt Q12809); assay: Displacement of [3H]dofetilide from human ERG channel at 10 nM; settings: probe [3H]dofetilide, read-out: Activity
hERG (KCNH2), sequence (Q12809 whole entry): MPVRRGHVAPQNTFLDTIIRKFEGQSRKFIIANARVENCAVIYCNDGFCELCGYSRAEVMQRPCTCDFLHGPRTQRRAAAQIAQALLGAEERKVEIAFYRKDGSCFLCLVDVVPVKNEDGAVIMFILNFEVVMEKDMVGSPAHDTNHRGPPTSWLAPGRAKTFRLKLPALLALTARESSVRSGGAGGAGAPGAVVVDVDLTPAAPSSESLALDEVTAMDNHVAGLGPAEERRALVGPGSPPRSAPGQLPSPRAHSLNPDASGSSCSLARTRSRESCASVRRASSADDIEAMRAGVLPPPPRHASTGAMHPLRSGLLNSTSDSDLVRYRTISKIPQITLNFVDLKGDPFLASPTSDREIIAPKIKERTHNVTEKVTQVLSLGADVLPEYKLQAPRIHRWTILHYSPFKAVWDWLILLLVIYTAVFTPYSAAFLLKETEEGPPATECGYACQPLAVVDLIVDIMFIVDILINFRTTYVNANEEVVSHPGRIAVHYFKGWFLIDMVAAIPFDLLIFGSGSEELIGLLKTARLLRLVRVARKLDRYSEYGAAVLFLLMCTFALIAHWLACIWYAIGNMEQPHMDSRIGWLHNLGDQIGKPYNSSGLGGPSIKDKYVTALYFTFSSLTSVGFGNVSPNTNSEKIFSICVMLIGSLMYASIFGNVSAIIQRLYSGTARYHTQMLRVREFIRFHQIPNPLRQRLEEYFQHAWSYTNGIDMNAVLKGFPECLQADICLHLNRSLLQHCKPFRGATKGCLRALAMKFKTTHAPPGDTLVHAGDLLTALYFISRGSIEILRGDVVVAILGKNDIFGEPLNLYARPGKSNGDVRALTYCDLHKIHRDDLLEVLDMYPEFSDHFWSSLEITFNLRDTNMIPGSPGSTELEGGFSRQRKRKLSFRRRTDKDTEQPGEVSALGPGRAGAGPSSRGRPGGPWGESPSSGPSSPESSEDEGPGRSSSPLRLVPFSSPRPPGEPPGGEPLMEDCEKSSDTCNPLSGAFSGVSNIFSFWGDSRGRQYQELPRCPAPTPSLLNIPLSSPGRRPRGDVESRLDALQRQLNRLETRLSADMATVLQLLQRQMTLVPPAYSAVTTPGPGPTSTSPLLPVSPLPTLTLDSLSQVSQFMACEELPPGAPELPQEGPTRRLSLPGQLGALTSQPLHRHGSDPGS

Cytochrome P450 2C9, sequence (P11712 whole entry): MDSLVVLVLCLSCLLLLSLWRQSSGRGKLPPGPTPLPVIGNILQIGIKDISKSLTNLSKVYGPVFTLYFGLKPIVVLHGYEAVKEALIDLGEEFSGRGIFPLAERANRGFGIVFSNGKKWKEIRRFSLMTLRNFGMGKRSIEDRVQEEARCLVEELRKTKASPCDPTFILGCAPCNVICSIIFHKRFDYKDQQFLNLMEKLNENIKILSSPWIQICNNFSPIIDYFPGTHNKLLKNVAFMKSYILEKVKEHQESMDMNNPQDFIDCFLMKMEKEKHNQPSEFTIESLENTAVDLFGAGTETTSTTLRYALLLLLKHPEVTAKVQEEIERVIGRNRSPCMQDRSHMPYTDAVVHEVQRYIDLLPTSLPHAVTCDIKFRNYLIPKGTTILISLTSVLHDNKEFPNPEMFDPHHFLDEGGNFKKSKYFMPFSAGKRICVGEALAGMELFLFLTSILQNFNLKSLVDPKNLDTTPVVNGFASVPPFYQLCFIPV
Cytochrome P450 3A4, sequence (P08684 whole entry): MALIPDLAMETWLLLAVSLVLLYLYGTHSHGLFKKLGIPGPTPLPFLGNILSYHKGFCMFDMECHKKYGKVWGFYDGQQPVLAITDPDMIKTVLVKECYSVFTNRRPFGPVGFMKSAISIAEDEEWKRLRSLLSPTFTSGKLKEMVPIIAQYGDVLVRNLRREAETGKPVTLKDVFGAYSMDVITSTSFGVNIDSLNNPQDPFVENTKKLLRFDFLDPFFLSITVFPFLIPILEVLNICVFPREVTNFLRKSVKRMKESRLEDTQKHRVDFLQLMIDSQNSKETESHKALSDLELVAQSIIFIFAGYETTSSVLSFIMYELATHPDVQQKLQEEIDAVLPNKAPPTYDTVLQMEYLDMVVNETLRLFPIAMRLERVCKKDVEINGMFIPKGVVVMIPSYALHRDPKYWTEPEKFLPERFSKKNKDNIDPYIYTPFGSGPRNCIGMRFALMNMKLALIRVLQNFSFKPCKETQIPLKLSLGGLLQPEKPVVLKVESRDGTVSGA
Cytochrome P450 2D6, sequence (P10635 whole entry): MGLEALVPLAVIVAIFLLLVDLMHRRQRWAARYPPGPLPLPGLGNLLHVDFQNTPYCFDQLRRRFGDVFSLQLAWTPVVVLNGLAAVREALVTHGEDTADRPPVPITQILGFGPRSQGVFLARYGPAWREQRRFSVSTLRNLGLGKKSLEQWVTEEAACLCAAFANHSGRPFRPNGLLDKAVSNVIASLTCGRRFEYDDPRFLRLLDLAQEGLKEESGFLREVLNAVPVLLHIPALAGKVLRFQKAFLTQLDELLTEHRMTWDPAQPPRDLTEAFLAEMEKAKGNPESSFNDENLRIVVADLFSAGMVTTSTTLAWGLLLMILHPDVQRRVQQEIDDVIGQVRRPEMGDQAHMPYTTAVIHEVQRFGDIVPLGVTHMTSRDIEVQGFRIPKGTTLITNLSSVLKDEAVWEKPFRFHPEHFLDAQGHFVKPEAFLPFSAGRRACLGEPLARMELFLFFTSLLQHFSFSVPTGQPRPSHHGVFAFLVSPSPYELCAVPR
Voltage-gated inwardly rectifying potassium channel KCNH2, sequence (Q12809 whole entry): as the sequence (Q12809 whole entry) above

SMILES	IC50 [1] [µM]	IC50 [2] [µM]	further results
CCc1nnc(-c2ccc(OCc3cccc(Cl)c3)c(Cl)c2)o1	11	76	
Cc1nnc(-c2ccc(OCc3cccc(Cl)c3)c(Cl)c2)o1	6.6	95	
COC(=O)c1ccc(OCc2cccc(Cl)c2)cc1	3.1	12	
COC(=O)c1ccc(CNc2cccc(Cl)c2)cc1	57	> 64	
CC(CO)NC(=O)c1ccc(OCc2cccc(Cl)c2)c(Cl)c1 (stereo unspecified)	29	483	MIC [3]: > 32 µg/mL; MIC [4]: 32 µg/mL (≈ 90.3 µM); MIC [5]: 4 µg/mL (≈ 11.3 µM)
COC(=O)c1ccc(NC(=O)c2cccc(Cl)c2)c(C)c1	> 64	> 64	
COC(=O)c1ccc(C(=O)Nc2cccc(Cl)c2)cc1	> 64	> 64	
COC(=O)c1ccc(/C=C/c2cccc(Cl)c2)c(C)c1	0.13	0.2	
NC(=O)c1nnc(-c2cc(Cl)c(OCc3cccc(Cl)c3)cn2)o1	2.7	60	
NC(=O)Cc1nnc(-c2ccc(OCc3cccc(Cl)c3)c(Cl)c2)o1	1.7	126	
CC(CO)NC(=O)c1ccc(OCc2cc(Cl)ccn2)c(Cl)c1 (stereo unspecified)	4.6	43	MIC [3]: 32 µg/mL (≈ 90.1 µM); MIC [4]: 32 µg/mL (≈ 90.1 µM); MIC [5]: 2 µg/mL (≈ 5.63 µM)
O=C(O)Cc1nnc(-c2ccc(OCc3cccc(Cl)c3)c(Cl)c2)o1	11	110	
NC(=O)c1nnc(-c2ccc(OCc3cccc(Cl)c3)c(Cl)c2)o1	2.6	81	
COC(=O)c1ccc(OCc2cccc(Cl)c2)c(Cl)c1	0.017	0.091	
CN1CCN(C(=O)c2ccc(OCc3cccc(Cl)c3)c(Cl)c2)CC1	0.15	2.3	
COC(=O)c1ccc(NCc2cccc(Cl)c2)c(C)c1	3.5	6.1	
COC(=O)c1ccc(N(C)Cc2cccc(Cl)c2)c(C)c1	0.17	3.5	
Cc1cc(C(=O)N2CCN(C)C(=O)C2)ccc1NS(=O)(=O)c1cccc(Cl)c1	> 64	> 64	
Cc1cc(C(=O)N2CCN(C(=O)C3CCCO3)CC2)ccc1OCc1cccc(Cl)c1 (stereo unspecified)	0.067	3.7	Ki [6]: 0.0239 µM; Activity [7]: Not Active; CLint scaled [8]: 55.1 mL/min/kg; Papp [9]: 10.8 ×10⁻⁶ cm/s; Activity [10]: Not Active; Activity [11]: Not Active; Activity [12]: Not Active
Cc1cc(C(=O)N2CCN(C(=O)C3CCCO3)CC2)ccc1CC(O)c1cccc(Cl)c1 (stereo unspecified)	0.28	11	
Cc1cc(C(=O)N2CCC(C(N)=O)CC2)ccc1OCc1cccc(Cl)c1	0.15		
Cc1cc(C(=O)N2CCC(C(N)=O)CC2)ccc1CCc1cccc(Cl)c1	0.36	46	
Cn1c(-c2cccc(Cl)c2)nc(=O)c2cc(C(=O)N3CCC(C(N)=O)CC3)ccc21	> 64	> 64	
CCN(CC)CCN(C)S(=O)(=O)c1ccc(OCc2cccc(Cl)c2)c(Cl)c1	1.9	79	
CC(=O)Nc1nnc(-c2ccc(OCc3cccc(Cl)c3)c(Cl)c2)o1	1.3	28	
Cc1ccc(C(=O)N2CCN(S(=O)(=O)c3ccc(OCc4cccc(Cl)c4)c(Cl)c3)CC2)cc1	1.9	12	
COC(=O)c1ccc(OCc2cccc(Cl)c2)c(C)c1	0.034	0.097	
COC(=O)c1ccc(OCc2cc(F)cc(F)c2)c(Cl)c1	0.03	0.16	

SMILES	IC50 [1] [µM]	IC50 [2] [µM]	further results
COC(=O)c1ccc(OCc2ccc(F)c(F)c2)c(Cl)c1	0.0087	0.12	
CN1CCN(C(=O)c2ccc(COc3cccc(Cl)c3)c(Cl)c2)CC1	0.84		
Cc1cc(C(=O)N2CCN(C)CC2)ccc1C(CO)c1cccc(Cl)c1 (stereo unspecified)	> 64	> 64	
CN1CCN(C(=O)c2ccc(OCc3cccc(Cl)c3)c(Cl)c2)CC1=O	0.038	1.3	Ki [6]: 0.0372 µM; Activity [7]: Not Active; CLint scaled [8]: < 7.6 mL/min/kg; Papp [9]: 16.4 ×10⁻⁶ cm/s; Activity [10]: Not Active; Activity [11]: Not Active; Activity [12]: Not Active
Nc1nnc(-c2cc(Cl)c(OCc3cccc(Cl)c3)cn2)o1		50	
CN1CCN(C(=O)c2ccc(CS(=O)(=O)c3cccc(Cl)c3)c(Cl)c2)CC1=O	> 64	> 64	
O=C(NCCCCO)c1ccc(OCc2cc(Cl)ccn2)c(Cl)c1	16	34	
O=C(NCCN1CCOCC1)c1ccc(OCc2cccc(Cl)c2)c(Cl)c1	14	438	
OCCc1nnc(-c2ccc(OCc3cccc(Cl)c3)c(Cl)c2)o1	3.1	87	
O=C(NCCN1CCOCC1)c1cc(Cl)c(OCc2cccc(Cl)c2)cn1	8	65	MIC [3]: 32 µg/mL (≈ 78 µM); MIC [4]: 8 µg/mL (≈ 19.5 µM); MIC [5]: 1 µg/mL (≈ 2.44 µM)
O=C(NC1CCC(O)CC1)c1cc(Cl)c(OCc2cccc(Cl)c2)cn1 (stereo unspecified)	1.5	28	
COC(=O)c1ccc([C@H](O)[C@@H](O)c2cccc(Cl)c2)c(C)c1	6.5	> 64	
COC(=O)c1ccc([C@@H](O)[C@H](O)c2cccc(Cl)c2)c(C)c1	> 64	> 64	
Clc1cccc(COc2ccc(-c3nnco3)cc2Cl)c1	11	156	
CSc1nnc(-c2ccc(OCc3cccc(Cl)c3)c(Cl)c2)o1	5.5	81	
C[S+]([O-])c1nnc(-c2ccc(OCc3cccc(Cl)c3)c(Cl)c2)o1 (stereo unspecified)	1.5	36	
O=C(NCC1CC1)c1ccc(OCc2cccc(Cl)c2)c(Cl)c1	57	393	
Clc1cccc(COc2cnc(-c3nnco3)cc2Cl)c1	12	97	CLint scaled [8]: < 10.1 mL/min/kg; Papp [9]: 5.31 ×10⁻⁶ cm/s; inhibition at 3 µM [13]: 38%
O=C(NCC1CC1)c1cc(Cl)c(OCc2cccc(Cl)c2)cn1	30	50	
COC(=O)c1ccc(CN(C)c2cccc(Cl)c2)cc1	> 64	> 64	
CN1CCN(C(=O)c2ccc(S(=O)(=O)Nc3cccc(Cl)c3)c(Cl)c2)CC1=O	> 64	> 64	
Nc1nnc(-c2ccc(OCc3cccc(Cl)c3)c(Cl)c2)o1	2.3	42	
CCn1nccc1NC(=O)c1cc(Cl)c(OCc2cccc(Cl)c2)cn1	24	34	
CS(=O)(=O)c1nnc(-c2ccc(OCc3cccc(Cl)c3)c(Cl)c2)o1	2.1	53	MIC [3]: 32 µg/mL (≈ 80.1 µM); MIC [4]: > 32 µg/mL; MIC [5]: 1 µg/mL (≈ 2.5 µM)
CN1CCN(C(=O)c2ccc(C[S+]([O-])c3cccc(Cl)c3)c(Cl)c2)CC1=O (stereo unspecified)	2.4	23	
CC(=O)NC1CCN(Cc2ccc(OCc3ccc(Cl)cc3)c(Cl)c2)C1 (stereo unspecified)	0.24	2.2	CLint scaled [8]: 9.63 mL/min/kg; inhibition at 0.01 µM [14]: 89%; Activity [9]: Not Active
O=C(NCCCCO)c1ccc(OCc2cccc(Cl)c2)c(Cl)c1	22	254	Ki [6]: > 0.1 µM; Activity [7]: Not Active; CLint scaled [8]: < 7.6 mL/min/kg; Papp [9]: 1.22 ×10⁻⁶ cm/s; Activity [10]: Not Active; Activity [11]: Not Active; Activity [12]: Not Active
